Reference: ChEMBL document CHEMBL3286135, “Antiviral C-25 epimers of 26-acetoxy steroids from the South China Sea gorgonian Echinogorgia rebekka” (J Nat Prod, 2014)
pIC50: −log10 of the molar value. Active and inactive are the calls of the source. The rule behind the calls is not given here.

Assays:
[1] = Cytotoxicity against mock-infected human Hep2 cells by XTT assay; format: cell-based, HEp-2; details: read-out: TC50 (the source's name)
Staphylococcus aureus = experiment: Antibacterial activity against Staphylococcus aureus by broth dilution assay; format: functional, organism-based
Nocardia brasiliensis = experiment: Antibacterial activity against Nocardia brasiliensis by broth dilution assay; format: functional, organism-based
Bacillus cereus = experiment: Antibacterial activity against Bacillus cereus by broth dilution assay; format: functional, organism-based
K562 = experiment: Cytotoxicity against human K562 cells by MTT assay; format: functional, cell-based
[2] = tested on: Respiratory syncytial virus; experiment: Antiviral activity against Respiratory syncytial virus infected in human Hep2 cells assessed as virus-induced cytopathicity by XTT assay; format: functional, organism-based; details: HEp-2
[3] = tested on: Staphylococcus epidermidis; experiment: Antibacterial activity against Staphylococcus epidermidis by broth dilution assay; format: functional, organism-based
[4] = Therapeutic ratio of TC50 for mock-infected human Hep2 cells to IC50 for Respiratory syncytial virus infected in human Hep2 cells; format: ADME, cell-based, HEp-2; details: read-out: TI
Pseudomonas putida = experiment: Antibacterial activity against Pseudomonas putida by broth dilution assay; format: functional, organism-based
Vibrio parahaemolyticus = experiment: Antibacterial activity against Vibrio parahaemolyticus by broth dilution assay; format: functional, organism-based
Escherichia coli = experiment: Antibacterial activity against Escherichia coli by broth dilution assay; format: functional, organism-based
HL-60 = experiment: Cytotoxicity against human HL60 cells by MTT assay; format: functional, cell-based
[5] = tested on: Tetragenococcus halophilus; experiment: Antibacterial activity against Tetragenococcus halophilus by broth dilution assay; format: functional
A549 = experiment: Cytotoxicity against human A549 cells by SRB assay; format: functional, cell-based
HeLa = experiment: Cytotoxicity against human HeLa cells by SRB assay; format: functional, cell-based

With `CC(=O)OC[C@@H](C)[C@H](C)/C=C/[C@@H](C)[C@H]1CC[C@H]2[C@@H]3CC(=O)[C@@]4(O)C[C@@H](O)CC[C@]4(C)[C@H]3CC[C@]12C` as the molecule, how does the CC50 [1] read?
Its CC50 is 0.38 µM.

What about the Activity (Staphylococcus aureus) of the same molecule?
Its Activity is “inactive”.

And the Activity (Nocardia brasiliensis)?
The Activity was “inactive”.

And the Activity (Bacillus cereus)?
Its Activity is “inactive”.

And the pIC50 (K562)?
Its pIC50 is 5.20.

What about the pIC50 [2] of the same molecule?
Its pIC50 is 6.72.

What about the Activity [3] of the same molecule?
Its Activity is “inactive”.

What about the selectivity ratio [4] of the same molecule?
Its selectivity ratio is 2.

What about the Activity (Pseudomonas putida) of the same molecule?
The Activity was “inactive”.

And the Activity (Vibrio parahaemolyticus)?
Its Activity is “inactive”.

And the Activity (Escherichia coli)?
Its Activity is “inactive”.

What about the pIC50 (HL-60) of the same molecule?
Its pIC50 is 5.05.

And the Activity [5]?
Its Activity is “inactive”.

Which CC50 [1] does the source give for `CC(=O)OCC(C)/C=C/[C@@H](C)[C@H]1CC[C@H]2[C@@H]3CC(=O)[C@@]4(O)C[C@@H](O)CC[C@]4(C)[C@H]3CC[C@]12C` (stereo not given in full) here?
Its CC50 is 12.9 µM.

And the Activity (Staphylococcus aureus)?
Its Activity is “inactive”.

And the Activity (Nocardia brasiliensis)?
The Activity was “inactive”.

What about the Activity (Bacillus cereus) of the same molecule?
The Activity was “inactive”.

And the pIC50 (K562)?
Its pIC50 is 5.38.

And the pIC50 [2]?
Its pIC50 is 5.49.

What about the Activity [3] of the same molecule?
The Activity was “inactive”.

What about the selectivity ratio [4] of the same molecule?
Its selectivity ratio is 4.

What about the Activity (Pseudomonas putida) of the same molecule?
Its Activity is “inactive”.

And the Activity (Vibrio parahaemolyticus)?
The Activity was “inactive”.

What about the Activity (Escherichia coli) of the same molecule?
Its Activity is “inactive”.

And the Activity [5]?
The Activity was “inactive”.

Which results are given for `NC(=O)c1ncn([C@@H]2O[C@H](CO)[C@@H](O)[C@H]2O)n1` [RIBAVIRIN]?
CC50 [1]: > 3000 µM; pIC50 [2]: 4.69; selectivity ratio [4]: > 147

What does the source list for `CC(=O)OC[C@H](C)[C@H](C)/C=C/[C@@H](C)[C@H]1CC[C@H]2[C@@H]3CC(=O)[C@@]4(O)C[C@@H](O)CC[C@]4(C)[C@H]3CC[C@]12C`?
Activity (A549): inactive; CC50 [1]: 24.4 µM; Activity (Staphylococcus aureus): inactive; Activity (Nocardia brasiliensis): inactive; Activity (Bacillus cereus): inactive; Activity (K562): inactive; pIC50 [2]: 6.72; Activity [3]: inactive; selectivity ratio [4]: 128; Activity (Pseudomonas putida): inactive; Activity (Vibrio parahaemolyticus): inactive; Activity (Escherichia coli): inactive; Activity (HeLa): inactive; Activity (HL-60): inactive; Activity [5]: inactive

What does the source list for `CC(=O)OC[C@@H](C)C/C=C/[C@@H](C)[C@H]1CC[C@H]2[C@@H]3CC(=O)[C@@]4(O)C[C@@H](O)CC[C@]4(C)[C@H]3CC[C@]12C`?
CC50 [1]: 12.6 µM; Activity (Staphylococcus aureus): inactive; Activity (Nocardia brasiliensis): inactive; Activity (Bacillus cereus): inactive; pIC50 (K562): 6.07; pIC50 [2]: 6.11; Activity [3]: inactive; selectivity ratio [4]: 16; Activity (Pseudomonas putida): inactive; Activity (Vibrio parahaemolyticus): inactive; Activity (Escherichia coli): inactive; Activity [5]: inactive
